# Source: patent US6380134B1, “N-pyridyl herbicide compounds” (Syngenta Crop Protection, Inc., priority 1998, dated 2002)
# Key:
# Type in all cases: in vivo
# Design in all cases: key: 1=complete damage; 9=no effect; Score figures of 1 to 4 (in particular 1 to 3) signify a good to very good herbicidal action
# Lolium [1] = experiment: Herbicidal action before plant emergence (pre-emergence action); conditions: 2000 g a.i./ha sprayed immediately after sowing; evaluated after 3 weeks; nine-level key (1=complete damage, 9=no effect)
# Text: (§1) Monocotyledonous and dicotyledonous test plants are sown in standard soil in plastic pots. Immediately after sowing, the test substances are sprayed on as aqueous suspensions (prepared from a 25% strength wettable powder (Example F3, b) in accordance with WO 97/34485) or as emulsions (prepared from a 25% strength emulsion concentrate (Example F1, c) in accordance with WO 97/34485), corresponding to a dosage of 2 kg of a.i./ha (500 l of water/ha). The test plants are subsequently grown in the greenhouse under optimal conditions. After a test period of 3 weeks, the experiment is evaluated using a nine-level key (1=complete damage, 9=no effect). Score figures of 1 to 4 (in particular 1 to 3) signify a good to very good herbicidal action.
# (§2) Test plants: Lolium, Setaria, Sinapis, Solanum, Stellaria, Ipomea.
# Ipomoea [2] = experiment: as above; conditions: 2000 g a.i./ha sprayed immediately after sowing; evaluated after 3 weeks; nine-level key (1=complete damage, 9=no effect)
# Text: as §1, §2
# Stellaria [3] = experiment: as above; conditions: 2000 g a.i./ha sprayed immediately after sowing; evaluated after 3 weeks; nine-level key (1=complete damage, 9=no effect)
# Text: as §1, §2
# Solanum [4] = experiment: as above; conditions: 2000 g a.i./ha sprayed immediately after sowing; evaluated after 3 weeks; nine-level key (1=complete damage, 9=no effect)
# Text: as §1, §2
# Sinapis [5] = experiment: as above; conditions: 2000 g a.i./ha sprayed immediately after sowing; evaluated after 3 weeks; nine-level key (1=complete damage, 9=no effect)
# Text: as §1, §2
# Setaria [6] = experiment: as above; conditions: 2000 g a.i./ha sprayed immediately after sowing; evaluated after 3 weeks; nine-level key (1=complete damage, 9=no effect)
# Text: as §1, §2
# Lolium [7] = experiment: Post-emergence herbicidal action; conditions: dose 2000 g a.i./ha; sprayed at 4- to 6-leaf stage; evaluated after approximately 18 days; nine-level key (1=complete damage, 9=no effect)
# Method: (§3) Monocotyledonous and dicotyledonous test plants are grown in the greenhouse in plastic pots containing standard soil and, in the 4- to 6-leaf stage, sprayed with an aqueous suspension of the test substances of the formula I, prepared from a 25% strength wettable powder (Example F3, b) in accordance with WO 97/34485) or with an emulsion of the test substances of the formula I, prepared from a 25% strength emulsion concentrate (Example F1, c) in accordance with WO 97/34485), corresponding to a dosage of 2 kg/ a.i./ha (500 l of water/ha). The test plants are subsequently grown on in the greenhouse under optimal conditions. After a test period of approximately 18 days, the experiment is evaluated using a nine-level key (1=complete damage, 9=no effect). Score figures of 1 to 4 (in particular 1 to 3) signify a good to very good herbicidal action.
# as §2
# Ipomoea [8] = experiment: Post-emergence herbicidal action; conditions: dose 2000 g a.i./ha; sprayed at 4- to 6-leaf stage; evaluated after approximately 18 days; nine-level key (1=complete damage, 9=no effect)
# Method: as §3, §2
# Stellaria [9] = experiment: Post-emergence herbicidal action; conditions: dose 2000 g a.i./ha; sprayed at 4- to 6-leaf stage; evaluated after approximately 18 days; nine-level key (1=complete damage, 9=no effect)
# Method: as §3, §2
# Solanum [10] = experiment: Post-emergence herbicidal action; conditions: dose 2000 g a.i./ha; sprayed at 4- to 6-leaf stage; evaluated after approximately 18 days; nine-level key (1=complete damage, 9=no effect)
# Method: as §3, §2
# Sinapis [11] = experiment: Post-emergence herbicidal action; conditions: dose 2000 g a.i./ha; sprayed at 4- to 6-leaf stage; evaluated after approximately 18 days; nine-level key (1=complete damage, 9=no effect)
# Method: as §3, §2
# Setaria [12] = experiment: Post-emergence herbicidal action; conditions: dose 2000 g a.i./ha; sprayed at 4- to 6-leaf stage; evaluated after approximately 18 days; nine-level key (1=complete damage, 9=no effect)
# Method: as §3, §2
SMILES,"Pre-emergence action, score, test plant Lolium (Lolium [1])","Pre-emergence action, score, test plant Ipomoea (Ipomoea [2])","Pre-emergence action, score, test plant Stellaria (Stellaria [3])","Pre-emergence action, score, test plant Solanum (Solanum [4])","Pre-emergence action, score, test plant Sinapis (Sinapis [5])","Pre-emergence action, score, test plant Setaria (Setaria [6])","Post-emergence action, score, Lolium (Lolium [7])","Post-emergence action, score, Ipomoea (Ipomoea [8])","Post-emergence action, score, Stellaria (Stellaria [9])","Post-emergence action, score, Solanum (Solanum [10])","Post-emergence action, score, Sinapis (Sinapis [11])","Post-emergence action, score, Setaria (Setaria [12])"
Cn1c(C(F)(F)F)cc(=O)n(-c2nc(OCC(N)=O)c(Cl)cc2F)c1=O [1.366],3,1,3,1,1,1,1,1,1,1,1,1
CCOC(=O)COc1nc(-n2c(=O)cc(C(F)(F)F)n(C)c2=O)c(F)cc1Cl [1.047],5,1,7,1,1,1,3,1,4,1,1,1
COC(=O)C(C)Oc1nc(-n2c(=O)cc(C(F)(F)F)n(C)c2=O)c(F)cc1Cl (centres unmarked) [1.048],1,1,1,1,1,1,1,1,1,1,1,1
COC(=O)C(Oc1cc(Cl)c(-n2c(=O)cc(C(F)(F)F)n(C)c2=O)nc1Cl)c1ccccc1 (centres unmarked) [500.144],–,–,–,1,–,2,–,–,–,–,–,–
C=CCOc1nc(-n2c(=O)cc(C(F)(F)F)n(C)c2=O)c(F)cc1Cl [1.020],1,1,1,1,1,1,1,1,1,1,1,1
C=CCOC(=O)C(C)(C)Oc1nc(-n2c(=O)cc(C(F)(F)F)n(C)c2=O)c(F)cc1Cl [1.402],1,4,1,1,1,1,1,1,1,1,1,1
CCCOc1nc(-n2c(=O)cc(C(F)(F)F)n(C)c2=O)c(F)cc1Cl [1.367],1,1,1,1,1,1,1,1,1,1,1,1
Cn1c(C(F)(F)F)cc(=O)n(-c2nc(OCc3ccccc3)c(Cl)cc2F)c1=O [1.026],1,1,3,1,1,1,3,1,3,1,1,3
COc1nc(-n2c(=O)cc(C(F)(F)F)n(C)c2=O)c(F)cc1Cl [1.016],1,1,1,1,1,1,1,1,1,1,1,1
Cn1c(C(F)(F)F)cc(=O)n(-c2nc(OCOCc3ccccc3)c(Cl)cc2F)c1=O [1.025],3,1,3,1,1,1,1,1,1,1,1,3
Cn1c(C(F)(F)F)cc(=O)n(-c2nc(Cl)c(Cl)cc2F)c1=O [1.396],1,1,1,1,1,1,3,1,3,1,1,3
CSC(=O)COc1cc(F)c(-n2c(=O)cc(C(F)(F)F)n(C)c2=O)nc1Cl [500.033],–,–,–,1,–,2,–,1,–,1,1,–
C=CCOc1cc(F)c(-n2c(=O)cc(C(F)(F)F)n(C)c2=O)nc1Cl [500.007],–,–,–,1,–,4,–,–,–,–,–,–
COC(=O)C(C)Oc1cc(F)c(-n2c(=O)cc(C(F)(F)F)n(C)c2=O)nc1Cl (centres unmarked) [500.029],–,–,–,1,–,4,–,1,–,1,1,–
CCOc1cc(F)c(-n2c(=O)cc(C(F)(F)F)n(C)c2=O)nc1Cl [500.004],–,–,–,–,–,–,–,3,–,1,2,–
